Assay results as given in patent US4305940A, “Benzamides with local anaesthetic and antiarrhythmic activity, salts, and method of preparation thereof and pharmaceutical compositions therefrom” (B.B.R. Boehringer Biochemia Robin S.p.A., priority 1979, dated 1981).

Tests used:
in vivo = conditions: rat, in vivo, ip; 5 days; hydrochloride salts; range in parentheses; read-out: DL50 i.p.
From the text: (§1) The behavior of the animals has then been followed for a period of five days. The DL50 has been determined according to the method of I. T. Litchfield and F. Wilcoxon, (J. Pharmacol. Exper. Ther., 96, 99, 1949). The compound numbers in Table II correspond to the numbers in Table I.

Swiss rats = assay: in vivo; conditions: lidocaine = 1
From the text: as §1

[1] = test system: response to skin puncture; assay: Anaesthesia by infiltration (subcutaneous, back puncture); format: in vivo, guinea pigs; conditions: for Infiltration anaesthesia DL50/CE50: analogous to therapeutic index, DL50 i.p.; for Infiltration anaesthesia CE50: concentration in percent achieving 50% of total responses, hydrochloride salts; for Infiltration anaesthesia DL50/CE50 relative to lidocaine / Infiltration anaesthesia activity with respect to lidocaine: lidocaine = 1
Experimental: The anaesthesia by infiltration has been determined in guinea pigs according to the method of E. Bulbring and I. Wajda, (Journal of Pharmacol. Exper. Ther. 85, 78, 1945). In each experiment, four doses of the substance in 0.25 cc of physiological saline solution is injected subcutaneously on the back after removal of hair. After five minutes, each animal is punctured six times at intervals of […].
The test was repeated every five minutes for a period of 30 minutes. The extent of anaesthesia by infiltration was measured quantitatively by determining the sum of the instances in which the animal remained immobile during the thirty minute period on 36 possible blinks.

corneal reflux = assay: Surface anaesthesia (corneal reflux, conjunctival sac); conditions: for Surface anaesthesia DL50/CE50: analogous to therapeutic index, DL50 i.p.; for Surface anaesthesia CE50: concentration in percent achieving 50% of total responses, pH 7 saline, hydrochloride salts; for Surface anaesthesia activity with respect to lidocaine: lidocaine = 1
Experimental: (§2) The data reported hereinbelow relate in every instance to the hydrochloride salts of the individual compounds.
The surface anaesthesia has been determined in rabbits according to the method of M. R. A. Change and H. Lobstein (J. Pharmacol. Exper. Ther., 82, 203, 1944). The compounds dissolved in physiological saline solution of pH 7 were injected into the conjunctival sac and the corneal reflux was induced with the brush of Frey six times at intervals of five minutes for a total period of 40 minutes.

[2] = test system: aconitine-induced ventricular arrhythmia; assay: Anti-arrhythmic activity, aconitine infusion; format: in vivo, Wistar rats; conditions: for Aconitine i.v. necessary to induce ventricular arrhythmia: 3 min before aconitine 10 mcg/kg/min; for Anti-arrhythmic activity compared with lidocaine: times more active than lidocaine; for Anti-arrhythmic activity compared with quinidine: times more active than quinidine
Experimental: as §2
This determination has been made in Wistar rats, anaesthetized with ethylurethane, (1 g/kg i.p.), according to the method of B. Vargaftig and J. L. Coigner (European Journal Pharmacology, 6, 49, 1969). The compounds dissolved in physiological saline solution, are injected intravenously three minutes prior to the infusion of aconitine, (10 mcg/kg/min.). The extent of anti-arrhythmic activity is determined quantitatively by determining the amount of aconitine necessary to induce ventricular arrhythmia.

[3] = test system: reflux of contraction of the lower limbs (lumbar plexus); assay: Anaesthesia by conduction (lumbar plexus); format: in vivo, frogs; conditions: for Conduction anaesthesia DL50/t' / Conduction anaesthesia 1/t'max. (c = 1%) with respect to lidocaine: c = 1%; for Conduction anaesthesia DL50/t': DL50 i.p.; for Conduction anaesthesia 1/t'max. (c = 1%) with respect to lidocaine / Conduction anaesthesia DL50/t' relative to lidocaine: lidocaine = 1
From the text: Anaesthesia by conduction has been determined on frogs according to the method of E. Bulbring and I. Wajda (Journal Pharmacol. Exper. Ther., 85, 78, 1945). The compounds dissolved in physiological saline solution are introduced into the cavity obtained by a transversal incision in the abdomen and separating the viscera in order to expose the lumbar plexus. The period of time necessary to eliminate the reflux of contraction of the lower limbs stimulated by immersion of both posterior legs into hydrochloric acid of increasing concentration between 0.05-0.1-0.2 N for a period not in excess of ten seconds, at intervals of one minute is determined. The extent of anaesthesia of conduction has been determined by measuring the period of time required for each compound in three different concentrations, 0.2%-0.5%-1.0% in order to abolish the reflex of contraction with the concentration of hydrochloric acid indicated hereinabove.

Row | SMILES | LD50 at 120 h (in vivo) [mg/kg] | DL50 i.p. relative to lidocaine (Swiss rats) | Infiltration anaesthesia DL50/CE50 [1] | Infiltration anaesthesia CE50 [1] [%] | Infiltration anaesthesia DL50/CE50 relative to lidocaine [1] | Infiltration anaesthesia activity with respect to lidocaine [1] | Surface anaesthesia DL50/CE50 (corneal reflux) | Surface anaesthesia CE50 (corneal reflux) [%] | Surface anaesthesia activity with respect to lidocaine (corneal reflux) | Aconitine i.v. necessary to induce ventricular arrhythmia ([2]; 0.6 mg/kg i.v.) [µg/kg] | Aconitine i.v. necessary to induce ventricular arrhythmia ([2]; 1.0 mg/kg i.v.) [µg/kg] | Aconitine i.v. necessary to induce ventricular arrhythmia ([2]; 3.0 mg/kg i.v.) [µg/kg] | Anti-arrhythmic activity compared with lidocaine [2] | Anti-arrhythmic activity compared with quinidine [2] | Conduction anaesthesia DL50/t' [3] | Conduction anaesthesia 1/t'max. (c = 1%) with respect to lidocaine [3] | Conduction anaesthesia DL50/t' relative to lidocaine [3] | Aconitine i.v. necessary to induce ventricular arrhythmia ([2]; 6.0 mg/kg i.v.) [µg/kg] | Aconitine i.v. necessary to induce ventricular arrhythmia ([2]; 8.0 mg/kg i.v.) [µg/kg]
1 | CCN(CC)Cc1ccccc1C(=O)Nc1c(C)cccc1Cl [Compound 13] | 16.3 | 0.11 | 58 | 0.28 | 0.31 | 2.68 | 27 | 0.60 | 3.83 | 48 ± 6 | 65 ± 7 | 67 ± 7 | at least twenty times more active than lidocaine | at least ten times more active than quinidine | 16 | 11.1 | 1.23 | – | –
2 | CCN(CC)Cc1ccccc1C(=O)Nc1c(C)cccc1C [Compound 1, 2,6-Dimethylanilide of 2-diethylaminomethylbenzoic acid] | 17.2 | 0.12 | 69 | 0.25 | 0.36 | 3.00 | 34 | 0.50 | 4.60 | 50 ± 5 | 67 ± 8 | 69 ± 8 | at least twenty times more active than lidocaine | at least ten times more active than quinidine | 6 | 3.6 | 0.46 | – | –
3 | CCN(CC)Cc1cccc(C(=O)Nc2c(C)cccc2C)c1 [Compound 2] | 67 | 0.47 | 291 | 0.23 | 1.54 | 3.26 | 163 | 0.41 | 5.60 | – | 43 ± 8 | 77 ± 9 | – | – | 67 | 11.1 | 5.15 | 82 ± 9 | –
4 | CCN(CC)Cc1ccccc1C(=O)Nc1c(C)cccc1C(=O)OC [Compound 14] | 24.7 | 0.17 | 57 | 0.43 | 0.30 | 1.74 | 60 | 0.41 | 5.61 | 45 ± 8 | 60 ± 7 | 81 ± 7 | at least twenty times more active than lidocaine | at least ten times more active than quinidine | 5 | 2.2 | 0.38 | – | –
5 | CCN(CC)Cc1ccc(C(=O)Nc2c(C)cccc2C)cc1 [Compound 3] | 82.5 | 0.58 | 10 | 8.02 | 0.05 | 0.09 | 17 | 4.78 | 0.48 | – | 38 ± 5 | 39 ± 6 | – | – | 9 | 1.2 | 0.69 | – | 47 ± 7
